“And” between values parts separate entries of the source, which are not always exact repeats. Equal values may be shown once. “Also recorded” adds a separate entry of the source.
How the values were obtained:
soybean lectin [1] = target: T1, soybean lectin (Glycine max, UniProt P05046); test: Isothermal titration calorimetry of GalNAc and analogs binding to soybean lectin; details: for KD / Kd: 50 mM HEPES, 20 mM CaCl2 pH 7, one set of sites model, N fixed to 4, NB = no binding detected (KD over 1–2 mM)
T1 construct: from tissue; host or cells: soybean meal (Glycine max seed meal)
Procedure: Isothermal titration calorimetry (ITC) measurements were performed in a buffer containing 50 mM HEPES and 20 mM CaCl2 (pH 7). […] Each experiment was carried out in duplicate.

soybean lectin [2] = target: T1, soybean lectin; test: SPR of lectin binding to sulfatide liposomes immobilized on L1 sensor chip; details: 0.4 μm liposomes, 10% sulfatide/90% DOPC; two-state reaction model; absence of GalNAc; read-out: KD (apparent), lectin to sulfatide liposomes
Procedure: SPR data were collected using a BIAcore X100 instrument equipped with an L1 sensor chip (Cytiva) coated with 0.4 μm liposomes at room temperature. Liposomes contained 10% sulfatide and 90% DOPC, whereas liposomes without sulfatide were composed of 100% DOPC. All experiments were performed using a buffer consisting of 50 mM HEPES and 140 mM NaCl (pH 7.4). Pretreatment of the sensor chip was performed with 40 mM octyl β-D-glucopyranoside. Liposomes were immobilized onto the L1 sensor chip at a flow rate of 30 μL/min, achieving a typical loading of ∼5500 response units per sensor chip channel. Lectin was used as the analyte across the specified concentration range. […] Data were best fitted using a two-state reaction model, and the apparent K D values were estimated using BIAevaluation software, version 2.0 (Cytiva).

soybean lectin [3] = target: T1, soybean lectin; test: Lectin-mediated cross-linking of sulfatide-containing GUVs, confocal microscopy; details: 7.5 μM lectin; GalNAc at 200 times the lectin concentration
Procedure: Giant unilamellar vesicles (GUVs) were generated as described by Horger et al. Briefly, an agarose solution was prepared by dissolving 4 g of agarose in 100 mL of Milli-Q water. The solution was poured onto one side of a glass slide and allowed to dry. The glass slide was then placed on a hot plate set to 38 °C. A 30 μL stock solution of lipids (3.75 mg/mL) was prepared in a chloroform–methanol mixture, containing 10% sulfatides, 30% DOPC, 30% cholesterol, 28% DOPE, and 2% DOPE-F (GUV-containing sulfatide) or 33.3% DOPC, 33.3% cholesterol, 31.3% DOPE, and 2% DOPE-F (GUV-sulfatide free). This lipid mixture was spread over the agarose layer on the heated glass slide using another glass slide. The slide remained on the hot plate for a few minutes until the solvent evaporated. To remove residual solvent, the glass slide containing the agarose and lipid film was placed in a vacuum chamber for 20 min. GUVs were then generated by placing the prepared glass slide in a Petri dish and covering it with phosphate buffer saline. The GUV-lectin suspension was prepared with a final lectin concentration of 7.5 μM. […] Confocal microscopy was performed using a Nikon AXR point-scanning confocal system built around an inverted Ti2 Eclipse microscope. […] In some cases, a gamma adjustment of 0.9 was applied to enhance fluorescence localization differences within individual vesicles. […]

porcine trypsin = porcine trypsin (Sus scrofa, UniProt P00761); test: Binding of soybean meal trypsin inhibitors to porcine trypsin (Table S2)
[4] = ITC competition, lectin preincubated with sulfatide liposomes (10% sulfatide/90% DOPC)
[5] = ITC competition, lectin preincubated with sulfatide-free liposomes (100% DOPC)
[6] = TI from soybean meal line 17Ti-0204
[7] = TI from soybean meal line 17Ti-0242
[8] = TI from soybean meal line 17Ti-0332
[9] = TI from soybean meal line 17Ti-0534
[10] = TI from soybean meal line Glenn

T1 sequence (P05046 33-285): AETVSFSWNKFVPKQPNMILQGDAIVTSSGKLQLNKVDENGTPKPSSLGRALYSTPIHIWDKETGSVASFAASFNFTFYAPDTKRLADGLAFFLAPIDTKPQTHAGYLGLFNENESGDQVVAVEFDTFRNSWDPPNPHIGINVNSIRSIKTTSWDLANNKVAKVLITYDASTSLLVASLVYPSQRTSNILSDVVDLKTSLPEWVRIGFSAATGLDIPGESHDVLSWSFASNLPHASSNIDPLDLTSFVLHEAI
Sequence of porcine trypsin (P00761 9-231): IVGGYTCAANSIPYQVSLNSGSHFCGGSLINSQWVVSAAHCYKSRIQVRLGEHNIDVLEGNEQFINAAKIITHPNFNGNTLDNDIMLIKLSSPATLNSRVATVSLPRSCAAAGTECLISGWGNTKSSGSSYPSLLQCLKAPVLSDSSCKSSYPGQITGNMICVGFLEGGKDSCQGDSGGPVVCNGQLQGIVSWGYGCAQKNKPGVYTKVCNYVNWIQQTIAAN

CC(=O)N[C@H]1[C@H]([C@H](O)[C@H](O)CO)O[C@@](OC[C@H]2O[C@@H](O[C@H]3[C@H](O)[C@@H](O)[C@H](O)O[C@@H]3CO)[C@H](O)[C@@H](O)[C@H]2O)(C(=O)O)C[C@@H]1O [6-SL, 6′-Sialyl lactose]
KD (soybean lectin [1]; ITC, 25 °C): no detectable binding
Kd (soybean lectin [1]; ITC, 25 °C, read-out: KD): > 1000 µM

sulfatide
Kd (soybean lectin [2]): 0.264 ± 0.062 µM

CO[C@H]1O[C@H](CO)[C@H](O)[C@H](O)[C@H]1NC(C)=O [MGalNAc, Methyl-N-acetyl-2-deoxy-α-D-galactosamine]
Kd (soybean lectin [1]; ITC, 25 °C, read-out: KD): 73 µM and 73.1 µM
ΔG (soybean lectin [1]; ITC, 25 °C, pH 7): –5.7 ± 0 kcal/mol
ΔH (soybean lectin [1]; ITC, 25 °C, pH 7): –10.7 ± 0.1 kcal/mol
–TΔS (soybean lectin [1]; ITC, 25 °C, pH 7): 5.0 ± 0.1 kcal/mol

CCCCCCCCO[C@H]1O[C@H](CO)[C@@H](O)[C@H](O)[C@@H]1O [OMP, Octyl-α-D-mannopyranoside]
KD (soybean lectin [1]; ITC, 25 °C): no detectable binding
Kd (soybean lectin [1]; ITC, 25 °C, read-out: KD): > 1000 µM

O=[N+]([O-])c1ccc(O[C@H]2O[C@H](CO)[C@@H](O)[C@H](O)[C@@H]2O)c(Cl)c1 [CNMP, 2-chloro-4-nitrophenyl-α-D-mannopyranoside]
KD (soybean lectin [1]; ITC, 25 °C): no detectable binding
Kd (soybean lectin [1]; ITC, 25 °C, read-out: KD): > 1000 µM

O=[N+]([O-])c1ccccc1OC1OC(CO)C(O)C(O)C1O [NPGP, 2-Nitrophenyl-β-D-galactopyranoside]
weaker affinity relative to GalNAc (soybean lectin [1]; ITC): ~10 fold
ΔG (soybean lectin [1]; ITC, 25 °C, pH 7): –4.3 ± 0 kcal/mol
ΔH (soybean lectin [1]; ITC, 25 °C, pH 7): –9.8 ± 0.4 kcal/mol
–TΔS (soybean lectin [1]; ITC, 25 °C, pH 7): 5.5 ± 0.3 kcal/mol
Kd (soybean lectin [1]; KD, ITC, 25 °C): 789.5 ± 0.7 µM

CC(=O)N[C@@H]1[C@@H](O)[C@@H](O)[C@@H](CO)O[C@H]1O [GalNAc, N-acetyl-D-galactosamine]
ΔG (soybean lectin [1]; [4]): –5.6 ± 0 kcal/mol
ΔH (soybean lectin [1]; [4]): –9.9 ± 0.2 kcal/mol
–TΔS (soybean lectin [1]; [4]): 4.3 ± 0.2 kcal/mol
ΔG (soybean lectin [1]; [5]): –5.6 ± 0 kcal/mol
ΔH (soybean lectin [1]; [5]): –9.9 ± 0.2 kcal/mol
–TΔS (soybean lectin [1]; [5]): 4.3 ± 0.2 kcal/mol
ΔG (soybean lectin [1]; ITC, 25 °C, pH 7): –5.8 ± 0 kcal/mol
–TΔS (soybean lectin [1]; ITC, 25 °C, pH 7): 4.5 kcal/mol and 4.5 ± 0.1 kcal/mol
effect on soybean lectin-mediated cross-linking of sulfatide-containing GUVs (soybean lectin [3]): inhibited; also recorded: reduced

O=[N+]([O-])c1ccc(O[C@H]2O[C@H](CO)[C@@H](O)[C@H](O)[C@@H]2O)cc1 [NPMP, 4-nitrophenyl-α-D-mannopyranoside]
KD (soybean lectin [1]; ITC, 25 °C): no detectable binding
Kd (soybean lectin [1]; ITC, 25 °C, read-out: KD): > 1000 µM

B1: KTI: Kunitz trypsin inhibitor isolated from soybean meal (protein)
chain: DFVLDNEGNPLENGGTYYILSDITAFGGIRAAPTGNERCPLTVVQSRNELDKGIGTIISSPYRIRFIAEGHPLSLKFDSFAVIMLCVGIPTEWSVVEDLPEGPAVKIGENKDAMDGWFRLERVSDDEFNNYKLVFCPQQAEDDKCGDIGISIDHDDGTRRLVVSKNKPLVVQFQKLDKESL
modifications: Native protein purified from soybean meal
Kd (porcine trypsin; [6]): 9 ± 2 µM
Kd (porcine trypsin; [7]): 2.4 ± 0.3 µM
Kd (porcine trypsin; [8]): 1.2 ± 0.1 µM
Kd (porcine trypsin; [9]): 2.4 ± 0.1 µM
Kd (porcine trypsin; [10]): 1.1 ± 0.4 µM

B2: BBTI: Birk and Bowman trypsin inhibitor isolated from soybean meal (protein)
chain: DDESSKPCCDQCACTKSNPPQCRCSDMRLNSCHSACKSCICALSYPAQCFCVDITDFCYEPCKPSEDDKEN
modifications: Native protein purified from soybean meal, probably a mixture of Bowman-Birk isoforms
Kd (porcine trypsin; [6]): 0.1 µM
Kd (porcine trypsin; [7]): 0.1 ± 0.1 µM
Kd (porcine trypsin; [8]): 0.2 µM
Kd (porcine trypsin; [9]): 0.1 µM
Kd (porcine trypsin; [10]): 0.1 µM
